For three compounds, IC50 results are on record in patent publication US11130759B1, “2-oxoquinazoline derivatives as methionine adenosyltransferase 2A inhibitors” (IDEAYA BIOSCIENCES, INC., priority 2018, dated 2021).

Where only a bound is given, the exact number is not on record here.

In the assay the target is Human MAT2A (Homo sapiens (Human), UniProt P31153). As to the kind of experiment: Phosphate Sensor Fluorescence Assay (MAT2A enzyme inhibition). It is filed as biochemical. The conditions noted are these: L-methionine 500 uM, ATP 500 uM. As to the method:
The ability of the compound of present disclosure to inhibit MAT2A enzyme was determined using the Malachite Green or Phosphate Sensor Fluorescence Assay described below.
B. Phosphate Sensor Fluorescence Assay
MAT2A enzyme is incubated with a test compound in DMSO or DMSO and its substrates (L-methionine and ATP) in a microtiter plate. The enzymatic reaction is stopped by the addition of Working Phosphate Sensor Mixture. The plate is analyzed for fluorescence at 450 nm.
Assay Buffer: 50 mM Tris, pH 7.5/50 mM KCl/10 mM MgCl2/0.01% Brij-35/1 mM DTT/0.1% BGG/40 nM PNP/6 uM 7-MEG
L-methionine: 500 uM before the addition of Working Phosphate Sensor Mixture
ATP: 500 uM before the addition of Working Phosphate Sensor Mixture
Test compounds or DMSO were added to the appropriate well suing D300e digital dispenser. 5 μl/well of Assay Buffer was added to the wells corresponding to the negative control and 5 μl/well of MAT2A was added to all the wells except for those corresponding to the negative control. After incubating the plate at room temperature for 15 minutes, 5 μl/well of the 1 mM L-methionine/1 mM ATP mixture was added to all wells. The plate was centrifuged at 1000 rpm for 1 minute and then incubated at room temperature for 1 hour. 5 μl of the Working Phosphate Sensor Mixture was added to all wells and the plate was centrifuged at 1000 rpm for 1 minute. The plate was read for fluorescence at 450 nm after exciting at 430 nm.
Percent inhibition was calculated in Chemical and Biological Information System (CBIS), (ChemInnovation Software Inc.). Curves were fitted by CBIS as % inhibition vs. log [compound concentration] using a 4-parameter inhibition model. Fit=(A+((B−A)/(1+((C/x)^D)))) Res=(y−fit)

Human MAT2A, sequence (P31153 whole entry): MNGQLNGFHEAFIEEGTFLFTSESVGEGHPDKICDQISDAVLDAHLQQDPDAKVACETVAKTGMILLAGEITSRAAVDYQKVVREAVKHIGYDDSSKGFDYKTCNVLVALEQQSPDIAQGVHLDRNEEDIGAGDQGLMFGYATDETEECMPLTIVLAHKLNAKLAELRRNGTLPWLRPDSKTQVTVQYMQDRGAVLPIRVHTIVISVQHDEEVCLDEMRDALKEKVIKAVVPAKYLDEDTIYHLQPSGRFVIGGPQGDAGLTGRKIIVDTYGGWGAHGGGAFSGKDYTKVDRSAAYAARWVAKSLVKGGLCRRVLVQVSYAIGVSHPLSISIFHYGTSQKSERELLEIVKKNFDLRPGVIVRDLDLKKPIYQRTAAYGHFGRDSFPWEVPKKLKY

Take `CCCc1ccc2c(N(C)C)nc(=O)n(-c3ccccc3)c2c1` [compound 98]: the IC50 (class symbols) is less than 200 nM.

As to `O=c1nc(N2CC[C@@H](O)C2)c2ccc(Cl)cc2n1-c1ccccc1O` [compound 152], the IC50 (class symbols) was less than 200 nM. In turn, “8-chloro-1-(2-chlorophenyl)-7- (trifluoro-methyl)pyrido[2,3- d]pyrimidine-2,4(1H,3H)-dione-1 [Example 360]” had an IC50 (numeric bound) of more than 10000 nM.
